What was measured:
Conditions in all cases: stereoisomer not certain
[1] = RP, Waters ACQUITY UPLC BEH C18, 100 × 2.1 mm, 1.7 µm, 0.1 mL/min, estimated dead time 2.2 min; A: water + 0.045% formic acid + 0.11% ammonium hydroxide, pH 7; B: methanol; gradient (min/%B) 0/5 5/5 25/95 25.1/100 35/100 35.1/5 45/5
[2] = RP, Waters CORTECS T3, 100 × 2.1 mm, 2.7 µm, 0.3 mL/min, estimated dead time 0.73 min; A: water + 0.1% formic acid, pH 3; B: methanol + 0.1% formic acid, pH 3; gradient (min/%B) 0/5 5/5 25/95 25.1/100 35/100 35.1/5 45/5
[3] = RP, Waters ACQUITY UPLC BEH C18, 100 × 2.1 mm, 1.7 µm, 0.2 mL/min, estimated dead time 1.1 min; A: water + 0.025% formic acid + 20 mM ammonium acetate + 0.055% ammonium hydroxide, pH 7; B: methanol; gradient (min/%B) 0/5 5/5 25/100 30/100 30.1/5 35/5
[4] = RP, Waters CORTECS T3, 100 × 2.1 mm, 2.7 µm, 0.2 mL/min, estimated dead time 1.1 min; A: water + 0.045% formic acid + 0.11% ammonium hydroxide, pH 7; B: methanol; gradient (min/%B) 0/5 5/5 25/95 25.1/100 35/100 35.1/5 45/5
[5] = RP, Waters CORTECS T3, 100 × 2.1 mm, 2.7 µm, 0.15 mL/min, estimated dead time 1.5 min; A: water + 0.1% formic acid, pH 3; B: methanol + 0.1% formic acid, pH 3; gradient (min/%B) 0/5 5/5 25/95 25.1/100 35/100 35.1/5 45/5
[6] = RP, Waters CORTECS T3, 100 × 2.1 mm, 2.7 µm, 0.3 mL/min, estimated dead time 0.73 min; A: water + 0.1% formic acid, pH 3; B: methanol + 0.1% formic acid, pH 3; gradient (min/%B) 0/5 5/5 25/100 30/100 30.1/5 35/5
[7] = RP, Waters ACQUITY UPLC BEH C18, 100 × 2.1 mm, 1.7 µm, 0.2 mL/min, estimated dead time 1.1 min; A: water + 0.1% formic acid, pH 3; B: methanol + 0.1% formic acid, pH 3; gradient (min/%B) 0/5 5/5 25/100 30/100 30.1/5 35/5
[8] = RP, Waters ACQUITY UPLC BEH C18, 100 × 2.1 mm, 1.7 µm, 0.2 mL/min, estimated dead time 1.1 min; A: water + 0.025% formic acid + 20 mM ammonium acetate + 0.055% ammonium hydroxide, pH 7; B: methanol; gradient (min/%B) 0/5 5/5 25/100 30/100 30.1/5 35/5; remark: listed apart in the source
[9] = RP, Waters CORTECS T3, 100 × 2.1 mm, 2.7 µm, 0.1 mL/min, estimated dead time 2.2 min; A: water + 0.1% formic acid, pH 3; B: methanol + 0.1% formic acid, pH 3; gradient (min/%B) 0/0 1/0 6/5 30/100 35/100 35.1/0 40/0
[10] = HILIC, Waters XBridge BEH Amide, 100 × 2.1 mm, 2.5 µm, 0.5 mL/min, estimated dead time 0.44 min; A: water + 0.1% acetic acid + 10 mM ammonium acetate, pH 4; B: 5% water + 95% acetonitrile + 0.1% acetic acid + 10 mM ammonium acetate, pH 4; gradient (min/%B) 0/95 5/95 20/57 25/57 30/95 40/95
[11] = RP, Thermo Scientific Hypercarb, 150 × 2.1 mm, 5 µm, 0.1 mL/min, estimated dead time 3.3 min; A: water + 0.1% formic acid, pH 3; B: methanol + 0.1% formic acid, pH 3; gradient (min/%B) 0/5 5/5 20/100 35/100 35.1/5 45/5
[12] = HILIC, Merck SeQuant ZIC-HILIC, 150 × 2.1 mm, 5 µm, 0.75 mL/min, estimated dead time 0.44 min; A: water + 0.1% acetic acid + 10 mM ammonium acetate, pH 4; B: 5% water + 95% acetonitrile + 0.1% acetic acid + 10 mM ammonium acetate, pH 4; gradient (min/%B) 0/95 5/95 20/57 25/57 30/95 40/95

| LC retention time [1] [min] | LC retention time [2] [min] | LC retention time [3] [min] | LC retention time [4] [min] | LC retention time [5] [min] | LC retention time [6] [min] | LC retention time [7] [min] | LC retention time [8] [min] | LC retention time [9] [min] | LC retention time [10] [min] | LC retention time [11] [min] | LC retention time [12] [min] | Compound |
| --- | --- | --- | --- | --- | --- | --- | --- | --- | --- | --- | --- | --- |
| 20.6 | 12 | 16.8 | 16.9 | 14.7 | 11.8 | 13.4 | 15.4 | 13.4 | 0.72 | – | 0.62 | CC(C)=CCNc1ncnc2nc[nH]c12 [N6-(DELTA2-ISOPENTENYL)-ADENINE] |
| – | 1.68 | – | 1.35 | 3.45 | 1.73 | 2.44 | 1.41 | – | 4.98 | – | 5.43 | Nc1nc2nccnc2c(=O)[nH]1 [PTERIN] |
| – | 1.51 | – | – | 3.01 | 1.53 | 2.14 | 1.36 | – | 6.47 | – | 5.71 | O=c1[nH]c(=O)c2[nH]cnc2[nH]1 [XANTHINE] |

More lines, now with the values behind:

| Compound | LC retention time [1] [min] | LC retention time [2] [min] | LC retention time [3] [min] | LC retention time [4] [min] | LC retention time [5] [min] | LC retention time [6] [min] | LC retention time [7] [min] | LC retention time [8] [min] | LC retention time [9] [min] | LC retention time [10] [min] | LC retention time [11] [min] | LC retention time [12] [min] |
| --- | --- | --- | --- | --- | --- | --- | --- | --- | --- | --- | --- | --- |
| N[C@@H](Cc1cc(I)c(Oc2ccc(O)cc2)c(I)c1)C(=O)O [3,5-DIIODO-L-THYRONINE] | 20.4 | 15.9 | 17.1 | 17.2 | 18.1 | 15.5 | 16.9 | 15.8 | 17.1 | – | – | – |
| O=C(O)c1cc(=O)c2ccccc2[nH]1 [4-HYDROXY-2-QUINOLINECARBOXYLIC ACID] | 11.7 | 9.2 | 8.26 | 7.9 | 12.1 | 9.17 | 10.9 | 5.96 | 10.7 | 8.25 | – | – |
| CC(C)(CO)C(O)C(=O)NCCC(=O)O [D-PANTOTHENIC ACID] | – | 5.14 | – | – | 9.08 | 5.2 | 8.01 | 1.46 | 7.4 | – | 21.3 | 9.3 |
| CC1NC(=O)NC1CCCCCC(=O)O (centres undefined) [DETHIOBIOTIN] | 12.5 | 12.6 | 9.58 | 9.32 | 15.1 | 12.4 | 13.8 | 8.17 | 13.9 | – | 30 | – |
| CC(=O)N[C@H](Cc1c[nH]c2ccccc12)C(=O)O [N-ACETYL-D-TRYPTOPHAN] | 14.1 | 12.5 | – | 10.4 | 15.2 | 12.3 | 14 | 9.66 | 13.9 | 8.11 | – | 8.28 |
| Cc1cc2nc3c(=O)[nH]c(=O)nc-3n(CC(O)C(O)C(O)CO)c2cc1C (centres undefined) [RIBOFLAVIN] | 15.7 | 11.9 | 12.7 | 13.2 | 14.1 | 11.7 | 12.7 | 11.9 | 13.1 | – | – | – |
| O=C(O)c1cc(=O)c2cccc(O)c2[nH]1 [XANTHURENIC ACID] | – | 8.97 | – | – | 11.8 | 8.94 | 10.4 | 1.36 | 10.4 | – | – | 9.68 |
